# Laboratory results taken from patent US20230233585A1, “USE OF […] OR OF ITS SALT FOR THE TREATMENT OF OSTEOARTHROSIS” (ABIOGEN PHARMA S.P.A., priority 2014, published 2023).
# Columns and labels:
# [1] = test system: patients with acute painful knee osteoarthritis (OA); experiment: Pain in the affected knee by VAS (0-100), randomized double-blind placebo-controlled study; type: in vivo; details: mean ± SD
# From the text: (§1) The aim of this randomized, double-blind, placebo-controlled study was to assess the efficacy of intravenous neridronate in controlling pain in patients with acute painful knee osteoarthritis (OA).
# (§2) From March 2013 to January 2014, 96 patients older than 50 years and with a recent onset of knee pain were screened. These patients came from the orthopedic and rheumatologic outpatients services and the emergency department of a tertiary care center devoted to bone and joint diseases. Sixty-eight patients were considered eligible to be recruited when they met the following inclusion criteria: 1) knee OA fulfilling the American College of Rheumatology diagnostic criteria; 2) a radiographic Kellgren-Lawrence grading score ≥2 in the tibiofemoral joint; 3) a continuous knee pain by at least 2 weeks with an onset no longer than three months; 4) a pain intensity greater than 30 mm on a Huskisson's visual analog scale ranging from 0 (no pain) to 100 mm (maximal pain); 5) a knee MR scan showing large (>1 cm according to international criteria) BMLs. […] At the time of recruitment, 58 patients out of 68 (85.3%) were taking or had taken drugs to control pain in the previous three months. The patients were asked not to take any analgesics or nonsteroidal anti-inflammatory drugs (NSAIDs) throughout the study period. All patients gave written consent. The study was approved by the Ethics Committee of the hospital where the study was carried out.
# (§3) After enrolment, patients were randomized to receive placebo or sodium neridronate (Abiogen, Pisa, Italy) 100 mg/8 ml in vials with an identical appearance in a 1:1 ratio. Both sodium neridronate and placebo were diluted in 500 ml of saline isotonic solution and infused in the morning for over 2 hours. The treatment was administered every third day four times starting from day 1 (first infusion) and ending on day 10 (fourth infusion). Throughout the infusion course, serum calcium was assayed before each infusion. The values were adjusted for albumin value of 4.2 g/dL. After 60 days (57-66) from the first infusion, the last clinical assessment was performed. Two months after the end of the study, patients were interviewed by telephone about a possible relapse of pain and the possible resumption of analgesic drugs and/or NSAIDs.
# Primary outcome of the study was the assessment and comparison of changes in pain intensity between the sodium neridronate group and the placebo group along the study. Pain in the affected knee was measured by VAS (0-100) at day 1 (T0), at the day of the last infusion (day 10; T1) and 50 days later (T2). As secondary endpoints, the following clinical assessments were performed: the Western Ontario and MacMaster Universities Osteoarthritis Index (WOMAC) pain questionnaire; the McGill Pain Questionnaire and the 36-Item Short Form Health Survey (SF-36) questionnaire to assess the patient's functional status. All these instruments were administered at T0 and T2. As additional endpoint, changes in WORMS score before the treatment and at T2 have been measured.
# [2] = test system: patients with acute painful knee osteoarthritis (OA); experiment: WOMAC pain questionnaire; type: in vivo; details: mean ± SD
# From the text: as §1
# (§4) From March 2013 to January 2014, 96 patients older than 50 years and with a recent onset of knee pain were screened. These patients came from the orthopedic and rheumatologic outpatients services and the emergency department of a tertiary care center devoted to bone and joint diseases. […]
# (§5) Primary outcome of the study was the assessment and comparison of changes in pain intensity between the sodium neridronate group and the placebo group along the study. Pain in the affected knee was measured by VAS (0-100) at day 1 (T0), at the day of the last infusion (day 10; T1) and 50 days later (T2). […] As additional endpoint, changes in WORMS score before the treatment and at T2 have been measured.
# [3] = test system: patients with acute painful knee osteoarthritis (OA); experiment: SF-36 questionnaire (functional status); type: in vivo; details: mean ± SD
# From the text: as §1, §2, §3, §5
# [4] = test system: patients with acute painful knee osteoarthritis (OA); experiment: McGill Pain Questionnaire; type: in vivo; details: mean ± SD
# From the text: as §1, §4, §5
# [5] = test system: subchondral BMLs in patients with painful knee OA; experiment: Knee MRI, WORMS score for bone marrow edema; type: in vivo; details: mean ± SD
# Experimental: as §3
# High resolution, three-dimensional MRI of the target knee was obtained for each patient before the start of the treatment (1-7 days) and at the end of the study (day 58-69). All MR images were evaluated by a skilled musculoskeletal radiologist who was blinded to the patient's treatment. All MR examinations were performed with a 1.5 T scanner (Magnetom Espree, Siemens) using a dedicated knee coil. Imaging was performed on sagittal, coronal and transverse planes, with a field of view (FOV) of 18 cm and a matrix of acquisition of 256×256. The MR protocol included: spin echo (SE) T1-weighted sequences (repetition time TR 580 ms, echo time TE 12 ms, number of signal averages 2, thickness 3.0 mm, intersection gap 0.5 mm) on sagittal, coronal and transverse planes; SE T2-weighted sequences (TR 4.000 ms, TE 30/100 ms, one signal acquired, thickness 3.0 mm, intersection gap 0.5 mm) on sagittal and transverse planes; PD-weighted sequence with fat/suppression (TR 2800 ms, TE 40 ms, one signal acquired, thickness 3.0 mm, intersection gap 0.5 mm) on coronal plane. Subchondral BMLs were identified as areas of increase signal intensity on fat-suppressed T2-weighted images. Scores were assigned using the Whole-Organ MRI score for knee OA (WORMS) for bone marrow edema. […] For each subregion, the extent of the lesion was assessed following the WORMS scale: 0=absence of edema; 1=less than 25%; 2=25-50%; 3=>50%.
# as §5
# [6] = test system: patients with acute painful knee osteoarthritis (OA); experiment: Telephone interview on resumption of analgesic drugs and/or NSAIDs; type: in vivo; details: two months after the last clinical evaluation; 4 patients out of 31
# Experimental: as §3
# [7] = test system: patients with acute painful knee osteoarthritis (OA); experiment: Adverse events during the infusion course; type: in vivo; details: one patient, after the first infusion
# Experimental: as §3
# Fifty-six patients completed the study. […] Eight patients in the placebo group were excluded for the resumption of analgesic or NSAIDs treatment during the study (7 patients) and one patient refused to return to be evaluated 50 days after the treatment. […]
# [8] = test system: patients with osteoarthritis; details: dosages 5, 15, 35 and 50 mg; cited from earlier work
# [9] = 50 days after the end of treatment (T2), N = 31
Compound,"VAS score ([1]; 50 days after the end of treatment (T2), 100 mg i.v. x4, N = 31)","VAS score ([1]; 50 days after the end of treatment (T2), 100 mg i.v. x4, N = 31, listed as Neridronate)","VAS score ([1]; baseline (day 1, T0), before treatment, N = 34)","VAS score ([1]; baseline (day 1, T0), before treatment, N = 34, listed as Neridronate)","VAS score ([1]; day of the last infusion (day 10, T1), 100 mg i.v. on days 1, 4, 7, 10)","WOMAC [2, 9]","WOMAC ([2]; baseline (T0), N = 34)","SF-36 mental component [3, 9]","SF-36 physical component [3, 9]","SF-36 mental component ([3]; baseline (T0), N = 34)","SF-36 physical component ([3]; baseline (T0), N = 34)","McGill [4, 9]","McGill ([4]; baseline (T0), N = 34)","WORMS score ([5]; T2, MRI at the end of the study, N = 31)","WORMS score ([5]; T2, MRI at the end of the study, N = 31, listed as Neridronate)","WORMS score ([5]; baseline, MRI before the start of treatment, N = 34)","WORMS score ([5]; baseline, MRI before the start of treatment, N = 34, listed as Neridronate)",patients who had resumed symptomatic therapy with analgesic drugs or NSAIDs [6],adverse event leading to withdrawal of consent [7],efficacy of treatment in pain symptoms versus placebo [8]
NCCCCCC(O)(P(=O)(O)O)P(=O)(O)O [sodium neridronate],9.4±10.8,9.4,59.0±14.7,59.0 ± 14.7,30.4±15.6,58,232 ± 79,62.5,51.1,56.1 ± 12.4,36.6 ± 10.2,3.7,14.3 ± 7.6,3.7±4.2,3.7,6.3±3.0,6.3 ± 3.0,12.9%,acute phase reaction,
O=P(O)(O)C(O)(Cc1cccnc1)P(=O)(O)O [risedronate],,,,,,,,,,,,,,,,,,,,it was not possible to find any difference
